Patent publication US5985893A, “Physically stable solid form of a fluoroquinolone” (Pharmacia & Upjohn Company, priority 1996, dated 1999)

Columns and labels:
[1] = Powder XRD after humidity exposure; assay type: physicochemical; details: 75% relative humidity, ambient temperature, 5 days
Procedure: A Rigaku DMAX-A X-ray diffractometer is employed for the acquisition of the powder XRD patterns. The instrument is operated with the copper K-L3 radiation at 1.5406 Å. The major instrumental parameters are set as follows: 40 KV voltage, 30 mA current, beam aperture of 1° and detector aperture (receiving slit) of 0.30°. Patterns are scanned over the range of 3-40° two-theta angles with a scan rate of 1.5° two-theta/min (step size of 0.05° and counting time at 2 second/step). Samples are ground to fine powders and packed into an aluminum tray.

[2] = Isothermal calorimetry (ITC) of Form I to Form III conversion; assay type: physicochemical
Procedure: Isothermal calorimetry (ITC) experiments are conducted using a model 2277 microcalorimeter made by ThermoMetric (see Suurkuusk, J.:Wadso, I. Chem. Scr. (1982) Vol. 20 pp. 155-163). The Digitam® version 2.1 software from Thermometric is used to display the data and to integrate the total heat obtained from the samples. Heat flow is monitored as a function of time at 60° C. and at 40° C. Both glass and stainless steel ampules are used to hold the solid samples and the reference material (quartz sand). Samples are thermally equilibrated for a period ranging from 15 minutes (glass ampules) to 1 hour (stainless steel ampules) prior to recording thermal data. The weight of the samples ranged from about 75 to 300 mg. Samples in glass ampules are equilibrated via the isopiestic method at 53% or 75% RH in chambers containing saturated solutions of sodium chloride or calcium nitrate tetrahydrate. The ampules are capped immediately after removing the samples. Other samples are equilibrated using "microhygrostats" containing small quantities of saturated salt solutions which are sealed within the ampules. This arrangement provided for nearly constant relative humidity as the crystal conversion proceeded.
We therefore studied the transformation of samples after equilibration at […] and 75% RH. […] HPLC analysis of the reaction product confirmed that the 60° C. ITC profiles contained negligible contributions from chemical decomposition.
A detailed explanation of FIG. 9 follows. […] Trace (a) is recorded from a sample of Form I equilibrated to 75% relative humidity before sealing the sample container and exposing it to the 60° C. conditions in the calorimeter. Trace (b) is recorded for a sample of Form I at 60° C., but a 75% relative humidity "microhygrostat" is placed in the sample container just prior to recording the data. The conversion is delayed from that of trace (a) due to the fact that the water must be transported from the microhygrostat to the Form I crystals during the experiment. Trace (c) is recorded for a sample of Form I at 60° C., but the sample was equilibrated at 53% relative humidity prior to sealing the sample container.
This trace results from placing a 75% relative humidity microhygrostat into the sample container just prior to recording the data. The sample is held at 40° C. in the calorimeter; the heat flow results as the Form I material converts to Form III.

CN[C@@H](C)[C@@H]1CCN(c2c(F)cc3c(=O)c(C(=O)O)cn(C4CC4)c3c2OC)C1 [Form I, [S-(R*,S*)]-1-cyclopropyl-6-fluoro-1,4-dihydro-8-methoxy-7-[3-[1-(methylamino)ethyl]-1-pyrrolidinyl]-4-oxo-3-quinolinecarboxylic acid]
Diffraction pattern after humidity exposure [1]: does not change after Form I is exposed to 75% relative humidity at ambient temperature for 5 days
Conversion exotherm, beginning ([2]; 40° C, 75% RH microhygrostat): about 6 hours
Conversion exotherm, end ([2]; 40° C, 75% RH microhygrostat): about 50 hours
Rate of conversion Form I to Form III, dependence on humidity ([2]; 60° C, 51% vs 75% RH): slower at 51% RH than at 75% RH by about two orders of magnitude
Integrated enthalpy change, low moisture sample ([2]; 60° C, after 80 hours, mixture of Forms I and III): about 10 J/g
Final state of high moisture sample (in words) ([2]; 60° C, equilibrated at 75% RH, by XRD and DSC): converted completely to Form III
Conversion of Form I to Form III under dry conditions (in words) ([2]; > 7 days at 40° C./50% RH or 5 days at 60° C.): did not convert to Form III under dry conditions, even after greater than 7 days at 40° C./50% RH or after 5 days at 60 °C
Initial water content of Form I sample ([2]; before ITC at 40° C): 0.54%
Conversion of Form I to Form III (in words) ([2]; equilibrated at 75% RH, 60° C): convert completely to Form III in less than one day at 60 °C
Conversion of Form I to Form III (in words) ([2]; initial water activity at least 53% RH): direct conversion of Form I to Form III occurs without the formation of Form II
Lowest temperature at which conversion of Form I to Form III was observed ([2]; microcalorimeter): 40 °C
